Series [1] has as its system rat uterine contractility. Briefly: rat uterine contractility assay (bioassay of recombined relaxin peptides). The series is classed as cell-based. The following applies: for Recombination Yield (by BIOASSAY), actual combination yield based on the B chain: combination of A and B chains, yield measured by bioassay; for Recombination Yield (by BIOASSAY), recalculated on the basis of 100% yield for the recombined natural A22 and B28 chains: relative to recombined natural A22 + B28 = 100%. On the procedure: The recombination of the relaxin peptide chains was monitored by HPLC and radioimmunoassay using an antibody raised to native porcine relaxin A22B29 and I125 Bolton-Hunter labelled A22B29 tracer (16). The biological activity of the recombined products was assessed using the rat uterine contractility assay (18).
The biological activity of the synthetic relaxin peptides was tested in the rat uterine contractility assay (18).

Series [2] in a line: solubility behaviour of relaxin B chain peptides in aqueous solution. The series is classed as physicochemical. Particulars: crude synthetic B chain. The source says:
We have carried out research into the chemical synthesis of relaxin and its structural analogues as part of a systematic study of the structure-function relationships in the hormone molecule. The purified separate chains of pig relaxin have been obtained in approximately 10% yield (based on crude). The major impurities in the synthetic peptides appear to have arisen through side-reactions of the cysteine residues occurring during the HF cleavage step. In more recent syntheses improved yields have been obtained using the HF stable S-ethyl mercapto protecting group for cysteine. […] Column chromatography on Sephadex, cellulose, polyamide or polystyrene resins results in virtually a complete loss of peptide by irreversible absorption (16). These properties have made purification of synthetic relaxin B chain peptides and their coupling to A chain particularly difficult.
As shown by FIG. 3(c), the CD spectra indicate that shortening to 25 residues results in a change of from the beta-configuration to an unordered conformation. This conformational change is reflected in an enhanced solubility of the peptide in aqueous solution, a loss of the adsorptive behaviour and an improvement in the combination yield with the A chain. Using the above-described method the combination yield rises to 10%. […]

Positions of bridges follow the written chain, without caps; N, C: chain ends. Residues, ends and D or L forms follow the SMILES beside them. Chains are numbered I, II in the order given. No end group written: not given here.

As for “I: RMTLSEKCCQVGCIRKDIARLC / II: Ac-NDFIKACGRELVRLWVEICG-NH2 (disulfide I:8-I:13, I:9-II:7, I:22-II:19) [SA (1-22) SB[N--acetyl](4-23)NH2]”, in series [1], the “Recombination Yield (by BIOASSAY), actual combination yield based on the B chain” value was 2.4%; the “Recombination Yield (by BIOASSAY), recalculated on the basis of 100% yield for the recombined natural A22 and B28 chains” value is on record as 10%.
Regarding `CC[C@H](C)[C@@H]1NC(=O)[C@H](CC(=O)O)NC(=O)[C@H](CCCCN)NC(=O)[C@H](CCCNC(=N)N)NC(=O)[C@H]([C@@H](C)CC)NC(=O)[C@@H]2CSSC[C@H](NC(=O)[C@H](CCCCN)NC(=O)[C@H](CCC(=O)O)NC(=O)[C@H](CO)NC(=O)[C@@H](N)CC(C)C)C(=O)N[C@@H](CSSC[C@H](NC(=O)[C@H](C)NC(=O)[C@H](CCCCN)NC(=O)[C@@H](NC(=O)[C@H](Cc3ccccc3)NC(=O)[C@H](CC(=O)O)NC(=O)[C@H](CC(N)=O)NC(C)=O)[C@@H](C)CC)C(=O)NCC(=O)N[C@@H](CCCNC(=N)N)C(=O)N[C@@H](CCC(=O)O)C(=O)N[C@@H](CC(C)C)C(=O)N[C@@H](C(C)C)C(=O)N[C@@H](CCCNC(=N)N)C(=O)N[C@@H](CC(C)C)C(=O)N[C@@H](Cc3c[nH]c4ccccc34)C(=O)N[C@@H](C(C)C)C(=O)N[C@@H](CCC(=O)O)C(=O)N[C@@H]([C@@H](C)CC)C(=O)N[C@H](C(=O)NCC(N)=O)CSSC[C@@H](C(=O)O)NC(=O)[C@H](CC(C)C)NC(=O)[C@H](CCCNC(=N)N)NC(=O)[C@H](C)NC1=O)C(=O)N[C@@H](CCC(N)=O)C(=O)N[C@@H](C(C)C)C(=O)NCC(=O)N2` [SA (4-22) SB[N--acetyl](4-23)NH2] (I: Ac-NDFIKACGRELVRLWVEICG-NH2 / II: H-LSEKCCQVGCIRKDIARLC-OH; disulfide I:7-II:6, I:19-II:19, II:5-II:10), in series [1], the “Recombination Yield (by BIOASSAY), actual combination yield based on the B chain” value was 1.3%; the “Recombination Yield (by BIOASSAY), recalculated on the basis of 100% yield for the recombined natural A22 and B28 chains” value is 5%.
With “B(1-29): synthetic porcine relaxin B chain of 29 residues (B chain of CMa')”, the “pH at which the peptide is soluble” value in series [2] is over 5.5.

Source of the values: patent US4656249A, “Peptides with relaxin activity” (Howard Florey Institute of Experimental Physiology and …, priority 1982, dated 1987).
